The target of the assay is SARS2 coronavirus 3CL protease (Severe acute respiratory syndrome coronavirus 2 (2019-nCoV) (SARS-CoV-2), UniProt P0DTD1). Briefly: SARS2 Coronavirus 3CL Protease Assay (FRET). It counts as biochemical. The note with it: SARS2 3CLPro FRET assay; 5 nM enzyme, 30 min pre-incubation with compound, 15 uM peptide substrate, 4 h room temperature.
Protocol: The enzymatic activity of SARS2 coronavirus 3CL protease was determined in a FRET (fluorescence resonance energy transfer)-based assay measuring the cleavage of a peptide substrate by recombinantly expressed and purified enzyme. Cleavage of the peptide SEQ ID NO:1 (CPC Scientific) by SARS2 3CL protease was measured in reaction buffer (50 mM Hepes pH 7.5, 0.01% Triton X-100, 0.01% BSA, 2 mM DTT). SARS2 3CL protease (5 nM final concentration) was pre-incubated with compound for 30 minutes before reaction initiation with peptide substrate (15 uM final concentration). Room temperature reactions (4 h) were quenched by addition of a high dose of inhibitor and read on an appropriate plate reader (excitation wavelength=495 nm, emission wavelength=520 nm). Data were analyzed by a standard 4 parameter fit to determine IC50 values.
Regarding `COC(=O)N[C@H](C(=O)N1CC(C23CC(C2)C3)C[C@H]1C(=O)N[C@@H](CCC(C)(F)F)C(=O)C(=O)NC1CC1)C(C)(C)C` (single isomer, unassigned) [Example 2, Methyl ((S)-1-((2S,4(R or S))-4-(bicyclo[1.1.1]pentan-1-yl)-2-(((S)-1-(cyclopropylamino)-6,6-difluoro-1,2-dioxoheptan-3-yl)carbamoyl)pyrrolidin-1-yl)-3,3-dimethyl-1-oxobutan-2-yl)carbamate], the IC50 amounted to 29 nM.

For `COC(=O)N[C@H](C(=O)N1C(C(=O)N[C@@H](CCC(C)(F)F)C(=O)C(=O)NC2CC2)[C@H]2CC[C@@H]1C2)C(C)(C)C` (single isomer, unassigned) [Example 77, Methyl ((S)-1-((1R, 3(R or S),4S)-3-(((S)-1-(cyclopropylamino)-6,6-difluoro-1,2-dioxoheptan-3-yl)carbamoyl)-2-azabicyclo[2.2.1]heptan-2-yl)-3,3-dimethyl-1-oxobutan-2-yl)carbamate], the IC50 was found to be 133 nM.

For the compound `CNC(=O)C(=O)[C@H](CCC(C)(F)F)NC(=O)C1C2CC(F)(F)CC2CN1C(=O)[C@@H](NC(=O)OC)C(C)(C)C` (single isomer, unassigned) [Example 105, methyl ((S)-1-((1S,3aR,6aS or 1R,3aS,6aR or 1S,3aS,6aR or 1R,3aR,6aS)-1-(((S)-6,6-difluoro-1-(methylamino)-1,2-dioxoheptan-3-yl)carbamoyl)-5,5-difluorohexahydrocyclopenta[c]pyrrol-2(1H)-yl)-3,3-dimethyl-1-oxobutan-2-yl)carbamate], the IC50 turned out to be 11 nM.

For the compound `COC(=O)NC(C(=O)N1CC2(CCCCC2)C[C@H]1C(=O)N[C@@H](CCC(C)(F)F)C(=O)C(=O)NC1CC1)C1CCC1` (single isomer, unassigned) [Example 63, Methyl ((R or S)-1-cyclobutyl-2-((S)-3-(((S)-1-(cyclopropylamino)-6,6-difluoro-1,2-dioxoheptan-3-yl)carbamoyl)-2-azaspiro[4.5]decan-2-yl)-2-oxoethyl)carbamate], the IC50 amounted to 32 nM.

As to `COC(=O)N[C@H](C(=O)N1CCC2(CCC2)CC1C(=O)N[C@@H](CCC(C)(F)F)C(=O)C(=O)NC1CC1)C(C)(C)C` (single isomer, unassigned) [Example 41, Methyl ((S)-1-((R or S)-(6-(((S)-1-(cyclopropylamino)-6,6-difluoro-1,2-dioxoheptan-3-yl)carbamoyl)-7-azaspiro[3.5]nonan-7-yl)-3,3-dimethyl-1-oxobutan-2-yl)carbamate], the half-maximal inhibitory concentration (IC50) was 13 nM.

For `COCC(NC(=O)OC)C(=O)N1CC2(CCCCC2)C[C@H]1C(=O)N[C@@H](CCC(C)(F)F)C(=O)C(=O)NC1CC1` (single isomer, unassigned) [Example 11, Methyl ((R or S)-1-((S)-3-(((S)-1-(cyclopropylamino)-6,6-difluoro-1,2-dioxoheptan-3-yl)carbamoyl)-2-azaspiro[4.5]decan-2-yl)-3-methoxy-1-oxopropan-2-yl)carbamate], the IC50 amounted to 40 nM.

Consider `COC(=O)N[C@H](C(=O)N1C[C@H]2[C@@H]([C@H]1C(=O)N[C@@H](CCC(C)(F)F)C(=O)C(=O)NC1CC1)C21CCCC1)C(C)(C)C` [Example 38, Methyl ((S)-1-((1R,2S,5S)-2-(((S)-1-(cyclopropylamino)-6,6-difluoro-1,2-dioxoheptan-3-yl)carbamoyl)-3-azaspiro[bicyclo[3.1.0]hexane-6,1′-cyclopentan]-3-yl)-3,3-dimethyl-1-oxobutan-2-yl)carbamate], for which the IC50 is 9.7 nM.

As to `COC(=O)N[C@H](C(=O)N1CC(C2CCCC2)C[C@H]1C(=O)N[C@@H](CCC(C)(F)F)C(=O)C(=O)NC1CC1)C(C)(C)C` (single isomer, unassigned) [Example 3, Methyl ((S)-1-((2S,4(R or S))-4-cyclopentyl-2-(((S)-1-(cyclopropylamino)-6,6-difluoro-1,2-dioxoheptan-3-yl)carbamoyl)pyrrolidin-1-yl)-3,3-dimethyl-1-oxobutan-2-yl)carbamate], the IC50 worked out at 58 nM.

`COC(=O)N[C@H](C(=O)N1CCC(F)(F)CC1C(=O)N[C@@H](CCC(C)(F)F)C(=O)C(=O)NC1CC1)C(C)(C)C` (single isomer, unassigned) [Example 45, Methyl ((S)-1-(R or S)-(2-(((S)-1-(cyclopropylamino)-6,6-difluoro-1,2-dioxoheptan-3-yl)carbamoyl)-4,4-difluoropiperidin-1-yl)-3,3-dimethyl-1-oxobutan-2-yl)carbamate]: the IC50 was found to be 34 nM.

Turning to `COC(=O)N[C@H](C(=O)N1C[C@H]2CCCC[C@H]2C[C@H]1C(=O)N[C@@H](CCC(C)(F)F)C(=O)C(=O)NC1CC1)C(C)(C)C` [Example 80, methyl ((S)-1-((3S,4aS,8aS)-3-(((S)-1-(cyclopropylamino)-6,6-difluoro-1,2-dioxoheptan-3-yl)carbamoyl)octahydroisoquinolin-2(1H)-yl)-3,3-dimethyl-1-oxobutan-2-yl)carbamate], the IC50 was determined as 12 nM.

For the compound `COC(=O)N[C@H](C(=O)N1CCC(OC(F)(F)F)CC1C(=O)N[C@@H](CCC(C)(F)F)C(=O)C(=O)NC1CC1)C(C)(C)C` (single isomer, unassigned) [Example 112, methyl ((S)-1-((2S,4S or 2R,4R)-2-(((S)-1-(cyclopropylamino)-6,6-difluoro-1,2-dioxoheptan-3-yl)carbamoyl)-4-(trifluoromethoxy)piperidin-1-yl)-3,3-dimethyl-1-oxobutan-2-yl)carbamate], the IC50 is 146 nM.

Regarding `COC(=O)N[C@H](C(=O)N1CCC2(CC2)C[C@H]1C(=O)N[C@@H](CCC(C)(F)F)C(=O)C(N)=O)C(C)(C)C` [Example 20, Methyl ((S)-1-((S)-5-(((S)-1-amino-6,6-difluoro-1,2-dioxoheptan-3-yl)carbamoyl)-6-azaspiro[2.5]octan-6-yl)-3,3-dimethyl-1-oxobutan-2-yl)carbamate], the IC50 amounted to 7.4 nM.

As to `CNC(=O)C(=O)[C@H](CCC(C)(F)F)NC(=O)[C@@H]1[C@@H]2[C@H](CN1C(=O)[C@@H](NC(=O)OC)C(C)(C)C)C21CCOCC1` [Example 40, Methyl ((S)-1-((1R,2S,5S)-2-(((S)-6,6-difluoro-1-(methylamino)-1,2-dioxoheptan-3-yl)carbamoyl)tetrahydro-3-azaspiro[bicyclo[3.1.0]hexane-6,4′-pyran]-3-yl)-3,3-dimethyl-1-oxobutan-2-yl)carbamate], the IC50 came out at 12 nM.

With `COC(=O)N[C@H](C(=O)N1CC2(CCCCC2)C[C@H]1C(=O)N[C@@H](CCC(C)(F)F)C(=O)C(=O)NC1CC1)C(F)(F)F` [Example 46, Methyl ((R)-3-((S)-3-(((S)-1-(cyclopropylamino)-6,6-difluoro-1,2-dioxoheptan-3-yl)carbamoyl)-2-azaspiro[4.5]decan-2-yl)-1,1,1-trifluoro-3-oxopropan-2-yl)carbamate], the IC50 was determined as 34 nM.

In the case of `COC(=O)N[C@H](C(=O)N1CCCC(C2CC2)C1C(=O)N[C@@H](CCC(C)(F)F)C(=O)C(=O)NC1CC1)C(C)(C)C` (single isomer, unassigned) [Example 90, methyl ((S)-1-((2S,3R or 2R,3S)-3-cyclopropyl-2-(((S)-1-(cyclopropylamino)-6,6-difluoro-1,2-dioxoheptan-3-yl)carbamoyl)piperidin-1-yl)-3,3-dimethyl-1-oxobutan-2-yl)carbamate], the IC50 came to 16 nM.

Take `COC(=O)N[C@H](C(=O)N1CC(C2CCOC2)C[C@H]1C(=O)N[C@@H](CCC(C)(F)F)C(=O)C(=O)NC1CC1)C(C)(C)C` (single isomer, unassigned) [Example 54, Methyl ((S)-1-((2S,4(R or S))-2-(((S)-1-(cyclopropylamino)-6,6-difluoro-1,2-dioxoheptan-3-yl)carbamoyl)-4-((R or S)-tetrahydrofuran-3-yl)pyrrolidin-1-yl)-3,3-dimethyl-1-oxobutan-2-yl)carbamate]: the IC50 turned out to be 201 nM.

`CC(C)OC(=O)N[C@H](C(=O)N1CC2(CCCCC2)C[C@H]1C(=O)N[C@@H](CCC(C)(F)F)C(=O)C(=O)NC1CC1)C(C)(C)C` [Example 4, Isopropyl ((S)-1-((S)-3-(((S)-1-(cyclopropylamino)-6,6-difluoro-1,2-dioxoheptan-3-yl)carbamoyl)-2-azaspiro[4.5]decan-2-yl)-3,3-dimethyl-1-oxobutan-2-yl)carbamate]: the IC50 was determined as 60 nM.

As for `COC(=O)N[C@H](C(=O)N1C[C@H]2[C@@H]([C@H]1C(=O)N[C@@H](CCC(C)(F)F)C(=O)C(=O)NC1CC1)C2(F)F)C(C)(C)C` [Example 111, methyl ((S)-1-((1S,2S,5R)-2-(((S)-1-(cyclopropylamino)-6,6-difluoro-1,2-dioxoheptan-3-yl)carbamoyl)-6,6-difluoro-3-azabicyclo[3.1.0]hexan-3-yl)-3,3-dimethyl-1-oxobutan-2-yl)carbamate], the IC50 turned out to be 88 nM.

As to `COC(=O)N[C@H](C(=O)N1CC(F)(F)CC[C@H]1C(=O)N[C@@H](CCC(C)(F)F)C(=O)C(=O)NC1CC1)C(C)(C)C` [Example 104, methyl ((S)-1-((S)-2-(((S)-1-(cyclopropylamino)-6,6-difluoro-1,2-dioxoheptan-3-yl)carbamoyl)-5,5-difluoropiperidin-1-yl)-3,3-dimethyl-1-oxobutan-2-yl)carbamate], the IC50 was determined as 740 nM.

`CNC(=O)C(=O)[C@H](CCC(C)(F)F)NC(=O)C1CC2(CCC2)CN1C(=O)[C@@H](NC(=O)OC)C(C)(C)C` (single isomer, unassigned) [Example 44, Methyl ((S)-1-((R or S)-7-(((S)-6,6-difluoro-1-(methylamino)-1,2-dioxoheptan-3-yl)carbamoyl)-6-azaspiro[3.4]octan-6-yl)-3,3-dimethyl-1-oxobutan-2-yl)carbamate]: the IC50 is 27 nM.

`CNC(=O)C(=O)[C@H](CCC(C)(F)F)NC(=O)C1C(C2CC2C)CCN1C(=O)[C@@H](NC(=O)OC)C(C)(C)C` (single isomer, unassigned) [Example 107, methyl ((S)-1-((2(S or R),3(S or R))-2-(((S)-6,6-difluoro-1-(methylamino)-1,2-dioxoheptan-3-yl)carbamoyl)-3-((1(S or R),2(R or S))-2-methylcyclopropyl)pyrrolidin-1-yl)-3,3-dimethyl-1-oxobutan-2-yl)carbamate]: the IC50 came out at 14 nM.

The record behind these values is patent US20250223259A1, “PROTEASE INHIBITORS FOR TREATING OR PREVENTING CORONAVIRUS INFECTION” (Merck Sharp & Dohme LLC, priority 2022, published 2025).
